Data taken from patent US4720493A, “Thienylthiazole compounds” (Yoshitomi Pharmaceutical Industries, Ltd., priority 1984, dated 1988).
Counter-ions that a name gives are not always drawn.

Legend:
[1] = tested on: tonic seizure; assay: Antianxiety effect (bicuculline-induced tonic seizure); assay type: in vivo; conditions: Mus musculus, po, 1 hour before bicuculline 0.6 mg/kg i.v., male ddY-mice; read-out: ED50 (prevention of tonic seizure in half of the animals)
Description: Test compounds were orally administered to groups of seven male ddY-mice and an hour later 0.6 mg/kg of bicuculline was intraveneously administered. […] The ED50 (mg/kg) was calculated by the probit method as the dose which is sufficient to prevent tonic seizure in half of the animals.

[2] = Toxicity; assay type: in vivo, ddY-mice
Excerpt: Compounds of Examples 5, 11, 14, 15 and 55 were orally or intraperitoneally administered to groups of five ddY-mice.

[3] = tested on: gastric mucous membrane; assay: Effect on injury of gastric mucous membrane (ethanol); assay type: in vivo, male Wistar rats; conditions: 30 min before ethanol 5 ml/kg p.o.
Description: Male Wistar rats, weighing 170-250 g, were deprived of food for 48 hours and water for 24 hours and then test compounds were intraperitoneally administered. Thirty minutes after administration of test compounds, 5 ml/kg of ethanol was orally administered. One hour later the stomach of each rat was excised and inflated with 8 ml of a 3% formalin solution. The stomach was incised along the greater curvature and the area (mm^2) of gastric injury were measured and summed. The square root of the sum was used as an ulcer index.

[4] = tested on: hypoxia; assay: Effect on hypoxia (survival time); assay type: in vivo, female dd-strain mice; conditions: 30 mg/kg p.o., 30 min before hypoxia 200 mmHg, mice
Description: According to the method of Nakanishi et al described in Life Science, vol. 13, p. 467, 1973, 30 mg/kg of test compounds were orally administered to groups of six female dd-strain mice and 30 minutes later the survival time, i.e. time required until respiratory failure, was measured under the hypoxia condition of 200 mmHg. The extention of the survival time against the control group was expressed as a percentage and the results are summarized in Table 3.

[5] = tested on: gastric secretion; assay: Effect on gastric secretion (Shay pylorus ligation); assay type: in vivo; conditions: 10 mg/kg s.c., pylorus-ligated female Wistar rats, 4 hours
Description: The experiment was performed according to the method of Shay et al described in Gastroenterology, vol 5, p. 43, 1945.
Groups of ten female Wistar rats, weighing 130.200 g, were deprived of food and the abdomen of each rat was incised and the pylorus ligated under ether anesthesia. Immediately after pylorus ligation, 10 mg/kg of test compounds were subcutaneously administered. After 4 hours, the gastric contents were collected and centrifuged. The supernatant was regarded as volume of gastric secretion. The acidity of gastric juice was determined by titrating the gastric juice with 0.1N sodium hydroxide to pH 7.0 with an automatic titrator (Kyoto Denshi Kogyo K.K., AT-107).
The percent inhibitions (%) of the compounds of the present invention on volume of gastric juice secretion and acidity of gastric juice were calculated and the results are summarized in Table 1.

c1ccc(Nc2nc(-c3ccc(CN4CCCCC4)s3)cs2)cc1 [Example 53, 2-Phenylamino-4-(5-piperidinomethyl-2-thienyl)thiazole]
ED50 [1]: 50 to 100 mg/kg

CC(=O)OCC(=O)NCc1ccc(-c2csc(N)n2)s1 [Example 11, 2-amino-4-(5-acetoxyacetylaminomethyl-2-thienyl) thiazole]
survival of mice, intraperitoneal ([2]; in vivo): All mice survived | survival of mice, oral ([2]; in vivo): All mice survived | Percent inhibition (ulcer index, against control group) ([3]; 1 mg/kg i.p.): 73%

Nc1nc(-c2ccc(CCN3CCOCC3)s2)cs1 [Example 65, 2Amino-4-[5-(2-morpholinoethyl)-2-thienyl]thiazole]
Extention of the survival time (percentage, against control group) [4]: 158% | Percent inhibition of acidity of gastric juice [5]: 39% | Percent inhibition of volume of gastric juice secretion [5]: 61%

CC(Oc1ccccc1)C(=O)NCc1ccc(-c2csc(N)n2)s1.O=C(O)/C=C\C(=O)O (stereo not drawn) [Example 50, 2-Amino-4-[5-(2-phenoxypropionylaminomethyl)-2-thienyl]thiazole maleate]
Percent inhibition of acidity of gastric juice [5]: 37% | Percent inhibition of volume of gastric juice secretion [5]: 64%

Nc1nc(-c2ccc(CN3CCCCC3)s2)cs1.O=C(O)/C=C/C(=O)O [Example 6, 2-Amino-4-(5-piperidinomethyl-2-thienyl)thiazole fumarate]
Extention of the survival time (percentage, against control group) [4]: 278% | Percent inhibition (ulcer index, against control group) ([3]; 10 mg/kg i.p.): 59%

CCN(CC)Cc1ccc(-c2csc(N)n2)s1.O=C(O)/C=C/C(=O)O [Example 4, 2-Amino-4-(5-diethylaminomethyl-2-thienyl)thiazole fumarate]
Percent inhibition of acidity of gastric juice [5]: 38% | Percent inhibition of volume of gastric juice secretion [5]: 65%

Nc1nc(-c2ccc(CNC(=O)COc3ccccc3)s2)cs1.O=C(O)/C=C\C(=O)O [Example 15, 2-Amino-4-(5-phenoxyacetylaminomethyl-2-thienyl)thiazole maleate]
survival of mice, intraperitoneal ([2]; 300 mg/kg intraperitoneal, five days after administration, ddY-mice): All mice survived | survival of mice, oral ([2]; 1000 mg/kg oral, five days after administration, ddY-mice): All mice survived

Nc1nc(-c2ccc(CN3CCOCC3)s2)cs1 [Example 5, 2-Amino-4-(5-morpholinomethyl-2-thienyl)thiazole]
Extention of the survival time (percentage, against control group) [4]: 367% | Percent inhibition of acidity of gastric juice [5]: 22% | Percent inhibition of volume of gastric juice secretion [5]: 66% | survival of mice, intraperitoneal ([2]; in vivo): All mice survived | survival of mice, oral ([2]; in vivo): All mice survived

Nc1nc(-c2ccc(CCN3CCN(c4cccc(C(F)(F)F)c4)CC3)s2)cs1 [Example 47, 2-Amino-4-[5-(2-(4-(3-trifluoromethylphenyl)-1-piperazinyl)ethyl)-2-thienyl]thiazole]
ED50 [1]: 21 mg/kg

CCOCC(=O)NCc1ccc(-c2csc(N)n2)s1 [Example 14, 2-Amino-4-(5-ethoxyacetylaminomethyl-2-thienyl)thiazole]
Extention of the survival time (percentage, against control group) [4]: 204% | Percent inhibition of acidity of gastric juice [5]: 39% | Percent inhibition of volume of gastric juice secretion [5]: 53% | survival of mice, intraperitoneal ([2]; in vivo): All mice survived | survival of mice, oral ([2]; in vivo): All mice survived | Percent inhibition (ulcer index, against control group) ([3]; 3 mg/kg i.p.): 35%

CC(C)NCc1ccc(-c2csc(N)n2)s1.O=C(O)/C=C\C(=O)O [Example 7, 2-Amino-4-(5-isopropylaminomethyl-2-thienyl)thiazole maleate]
Percent inhibition of acidity of gastric juice [5]: 31% | Percent inhibition of volume of gastric juice secretion [5]: 80% | Percent inhibition (ulcer index, against control group) ([3]; 3 mg/kg i.p.): 51% | Percent inhibition (ulcer index, against control group) ([3]; 10 mg/kg i.p.): 63%

Nc1nc(-c2ccc(CCN3CCCCC3)s2)cs1.O=C(O)/C=C\C(=O)O [Example 54, 2-Amino-4-[5-(2-piperidinoethyl)-2-thienyl]thiazole maleate]
ED50 [1]: 50 to 100 mg/kg

Nc1nc(-c2ccc(CCN3CCN(c4cccc(Cl)c4)CC3)s2)cs1 [Example 55, 2-Amino-4-[5-(2-(4-(3-chlorophenyl)-1-piperazinyl)ethyl)-2-thienyl]thiazolehydrochloride]
survival of mice, intraperitoneal ([2]; in vivo): All mice survived | survival of mice, oral ([2]; in vivo): All mice survived | ED50 [1]: 50 mg/kg

CC(=O)NCc1ccc(-c2csc(N)n2)s1.Cl [Example 1, 2-amino-4-(5-acetylaminomethyl-2-thienyl)thiazole hydrochloride]
Extention of the survival time (percentage, against control group) [4]: 280%
